Reference: patent US10106627B2, “Process for the preparation of polymeric biosurfactants” (priority 2014, dated 2018)

How the values were obtained:
RAW 264.7 macrophages = experiment: In vitro MTT assay, proliferation of RAW 264.7 macrophages; type: cell-based, mouse; conditions: 200 μg ml-1, 48 h
Protocol: The effect of Brevisan, Microsan and M-EPS-Au-NP on the proliferation of RAW 264.7 macrophages (ATCC No. CRL-2278) was measured by in vitro MTT assay using the previously described method [Mosmann, T. (1983) J. Immunol. Methods 65, 55-63], which is based on the cell-mediated reduction of tetrazolium salt to form water insoluble formazan crystals. The MTT assay was performed with different concentrations (1-200 μg ml-1) of Brevisan, Microsan and M-EPS-Au-NP were incubated for 48 h using laminarin as a control.

[1] = tested on: intracellular reactive oxygen species (ROS) in RAW 264.7 macrophages; experiment: LPS-induced intracellular ROS (DCFH-DA) in RAW 264.7 macrophages; type: cell-based, mouse; conditions: 20 μg ml^−1; LPS 100 ng/ml 24 h; LPS alone 78.97%
Protocol: The inhibition of intracellular reactive oxygen species (ROS) by Brevisan, Microsan and M-EPS-Au-NP in RAW 264.7 macrophages was measured using the oxygen free radical acceptor 2,7,-dichlorofluorescein diacetate (DCFH-DA) [Wang, H., and Joseph J. A. (1999) Free. […] The RAW-264.7 macrophages (2×10^6 cells/well in 24-well plate) were treated with Brevisan, Microsan and M-EPS-Au-NP at various concentrations and then stimulated with 100 ng/ml LPS for 24 h using N-acetylcysteine (NAC, 10 mM) as a ROS inhibitor. The DCF formed by intracellular ROS was measured at 485 nm excitation and 520 nm emission wavelengths using a Hitachi spectrofluorimeter. The experiments were run in triplicates and reported as the percentage of intracellular ROS formed.

[2] = Emulsification index (EI24); type: physicochemical; conditions: 24 h
Protocol: The surface tension of the purified Microsan from Microbacterium sp. strain BS-2 and Brevisan from Brevibacillus sp. strain BS-207 was measured by Wilhelmy plate method using a Du-Nouy K100MK2 Processor Tensiometer (Krüss, Hamburg, Germany) which reduced the surface tension of water from 72 to 31.2 mN m^−1. The interfacial tension value was measured by Du-Nouy ring method and it was determined as 25.7 mN m. The critical micelle concentration (CMC) was measured by plotting the concentration of EPS as a function of surface tension. The CMC is the point where the slope of the curve abruptly changed was determined as 75 mg l^−1. The emulsification index (EI24) was determined by the addition of 4 ml of culture supernatant to 6 ml of various hydrocarbons (N-Hexadecane, tridecane, hexane, toluene and xylene) and oils (mineral oil and soybean oil) and the mixtures were vortexed for 2 min and allowed to stand for 24 h. The emulsification index (EI24) values expressed as the percentage of height of emulsified layer to the height of total liquid column.

[3] = Thermal degradation analysis (TGA/DSC); type: physicochemical
Protocol: The Microsan and Brevisan polymeric biosurfactants recovered and purified in Example 3 were subjected to structural characterization. The average molecular weight (Mw) of EPS was determined by gel permeation chromatography [Agilent 1100 Series HPLC system, TOSOH Corporation, Japan, equipped with a RID and a TSK G5000PWXL gel column (7.8×300 mm) and a TSK PWXL (6.0 mm×40 mm) guard column] using dextran standards ranging from 10680 to 578500 Da (Sigma, CAS No. 9004-54-0). The Fourier transform infrared spectra (FT-IR) were recorded on the Thermo-Nicolet Nexus 670 FT-IR spectrophotometer (Thermo Fisher Scientific Inc., Madison, Wis., U.S.A.) using KBr pellets containing 1% finely ground EPS samples and the spectra was collected at a resolution of 4 cm^−1 in the wavenumber region of 400-4,000 […]. The cross-polarization/magic angle spinning (CP/MAS) ^13C NMR experiments were performed on a Varian Unity Innova spectrometer operating at 400 MHz for ^1H and 100 MHz for ^13C at room temperature. […] Thermal degradation analyses of the EPS samples were measured using a DSC 821^c (Mettler Toledo GmbH, Switzerland) interfaced with Mettler Toledo Star SW (version 8.10) software. […] All of the XPS analyses were carried out in duplicates (two independent samples of each type of EPS analyzed at different time intervals). […]

β-D-glucuronyl-(1-2)-D-mannosyl-(1-4)-D-glucose [Microsan]
cell proliferation (MTT) (RAW 264.7 macrophages): 89.07%
LPS-induced ROS levels after treatment [1]: 55.71%
emulsification index (EI24) ([2]; N-hexadecane): 67%
emulsification index (EI24) ([2]; hexane): 83.7%
emulsification index (EI24) ([2]; mineral oil): 71.9%
emulsification index (EI24) ([2]; soybean oil): 63%
emulsification index (EI24) ([2]; toluene): 74.9%
emulsification index (EI24) ([2]; tridecane): 77%
emulsification index (EI24) ([2]; xylene): 66.89%
thermal degradation temperature (TGA) [3]: 280 °C
